The term IC50 denotes the point on the concentration scale where inhibition reaches its midpoint. Usually Ki stands for a dissociation constant, usually derived from enzyme kinetics or from competition with a known ligand. As a reminder, the melting point is the temperature of the solid-liquid transition.

Several values for one entry are separate records, joined by “and”; a condition that tells them apart may be missing. Equal values may be shown once. Read-outs that look alike come from different tables or passages of the source.

The target of data set [1] is T1, hCA XII (Homo sapiens, UniProt O43570). In words: Carbonic anhydrase inhibition, colorimetric method (BioVision CA Inhibitor Screening Kit). Particulars: for Selectivity index I/XII: hCA XII over hCA I; for Selectivity index II/XII: hCA XII over hCA II.
The test system of data set [2] is Bcl-2. Description: Assessment of apoptotic marker levels: Bcl-2 in MCF-7. It is filed as cell-based. The source says:
(§1) The two cytoplasmic proteins, B-cell lymphoma protein 2 (Bcl-2) and its associated X protein (Bax), are essential for apoptosis in normal cells. Bax is a promoter and Bcl-2 is an inhibitor of apoptosis. Thus, the effect of 10d and 10l on apoptotic markers Bax and Bcl-2 in a breast cancer cell line (MCF-7) and a lung cancer cell line (A549) has been estimated.

Data set [3] has as its target T2, hCA IX (Homo sapiens, UniProt Q16790). Description: Carbonic anhydrase inhibition, colorimetric method (BioVision CA Inhibitor Screening Kit). Particulars: for Selectivity index I/IX: hCA IX over hCA I; for Selectivity index II/IX: hCA IX over hCA II.
Data set [4] deals with Bcl-2. In words: Assessment of apoptotic marker levels: Bcl-2 in A549. The format is cell-based.
Text: as §1

In data set [5] the test system is breast cancer cell line (MCF-7). Description: Antiproliferative activity, MTT assay under hypoxic conditions. Particulars: Homo sapiens, MCF7, read-out: Cytotoxicity IC50 MCF7.
Data set [6] deals with Bax. Description: Assessment of apoptotic marker levels: Bax in A549. The format is cell-based.
Text: as §1

The target in data set [7] is T3, hCA II (Homo sapiens, UniProt P00918). Description: Carbonic anhydrase inhibition, colorimetric method (BioVision CA Inhibitor Screening Kit).
The target in data set [8] is T4, hCA I (Homo sapiens, UniProt P00915). The data set is described as above.
In data set [9] the test system is lung cancer cell line (A549). Description: Antiproliferative activity, MTT assay under hypoxic conditions. It is filed as cell-based. The settings on record: Homo sapiens, read-out: Cytotoxicity IC50 A549. Background: Tetrazolium dyes change colour on reduction, which living cells bring about.
Data set [10] relates to Bax. In words: Assessment of apoptotic marker levels: Bax in MCF-7. The format is cell-based.
Text: as §1

The target of data set [11] is T3, hCA II. The settings on record: range, quinoline-based sulfonamides; cited from earlier work.
The target in data set [12] is T4, hCA I. Particulars: range, quinoline-based sulfonamides; cited from earlier work.
Data set [13] concerns the target T1, hCA XII. Also on record: method as in PMID 34681794. Particulars: cited from earlier work.
Data set [14] deals with T2, hCA IX. Also on record: method as in PMID 34681794. The settings on record: cited from earlier work.

T4 sequence (P00915 whole entry): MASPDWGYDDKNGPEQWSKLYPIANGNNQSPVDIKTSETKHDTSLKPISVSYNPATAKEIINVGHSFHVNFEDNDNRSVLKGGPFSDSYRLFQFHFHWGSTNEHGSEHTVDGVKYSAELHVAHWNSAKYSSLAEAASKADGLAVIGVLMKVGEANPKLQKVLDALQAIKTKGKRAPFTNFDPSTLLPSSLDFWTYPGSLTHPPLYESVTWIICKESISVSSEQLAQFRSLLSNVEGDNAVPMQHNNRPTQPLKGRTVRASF
T1 sequence (O43570 25-354): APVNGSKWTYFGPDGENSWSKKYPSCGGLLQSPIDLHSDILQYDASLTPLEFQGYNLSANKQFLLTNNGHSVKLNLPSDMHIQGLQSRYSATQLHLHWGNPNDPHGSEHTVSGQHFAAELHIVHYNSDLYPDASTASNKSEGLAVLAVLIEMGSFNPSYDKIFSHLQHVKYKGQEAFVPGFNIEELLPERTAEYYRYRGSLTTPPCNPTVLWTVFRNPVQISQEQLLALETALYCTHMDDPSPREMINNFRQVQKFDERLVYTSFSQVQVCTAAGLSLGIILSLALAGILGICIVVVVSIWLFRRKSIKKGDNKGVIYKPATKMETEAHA

With `Cn1c(N)c(/N=C/c2cc3ccccc3[nH]c2=O)c(=O)[nH]c1=O` [Compound 10d, (E)-6-Amino-1-methyl-5-(((2-oxo-1,2-dihydroquinolin-3-yl)methylene)amino) pyrimidine-2,4(1H,3H)-dione], the melting point was in the range of 298 to 300 °C. Also, on hCA XII [1], the IC50 is 190 nM, the Ki came to 110 nM, the “Selectivity index I/XII” value was found to be 1.24 and the “Selectivity index II/XII” value was 1.37. Also, in the data set on Bcl-2 [2], the Bcl2 worked out at 2.587 ± 0.03 nm/mL and the “Bcl-2 level in comparison with the control” value (“Bcl-2 level in comparison” below) is reported as “downregulated”. Besides, on hCA IX [3], the IC50 came to 220 nM, the inhibition constant (Ki) is 120 nM, the “Selectivity index I/IX” value is given as 1.09 and the “Selectivity index II/IX” value was found to be 1.21. Besides, in the data set on Bcl-2 [4], the Bcl2 worked out at 2.841 ± 0.01 nm/mL and the “Bcl-2 level in comparison” value is recorded as “downregulated”. Besides, the IC50 in data set [5] was 2.87 ± 0.05 µM. Moreover, in the data set on Bax [6], the Bax came to 278.6 ± 9.14 pg/mL and the “Bax level relative to the control” value is given as “nearly six-fold”. At hCA II [7], the IC50 stood at 260 nM and the affinity corresponds to a Ki of 140 nM. Moreover, on hCA I [8], the 50% inhibitory concentration (IC50) was determined as 230 nM and the affinity corresponds to a Ki of 130 nM. The IC50 in data set [9] is 11.8 ± 0.22 µM. Further, in the data set with Bax [10], the Bax is 403.1 ± 4.69 pg/mL and the “Bax level relative to the control” value is recorded as “nearly six-fold”.

For `COc1ccc2[nH]c(=O)c(/C=N/c3c(N)n(C)c(=S)[nH]c3=O)cc2c1` [Compound 10l, (E)-3-(((6-Amino-1-methyl-4-oxo-2-thioxo-1,2,3,4-tetrahydropyrimidin-5-yl)imino)methyl)-6-methoxyquinolin-2(1H)-one], the melting point lay in the range of 295 to 297 °C. Also, on hCA XII [1], the concentration for half-maximal inhibition (IC50) was determined as 190 nM, the Ki worked out at 110 nM, the “Selectivity index I/XII” value came to 1.29 and the “Selectivity index II/XII” value turned out to be 9.75. Besides, in the data set on Bcl-2 [2], the Bcl2 is 3.296 ± 0.09 nm/mL and the “Bcl-2 level in comparison” value was “downregulated”. Also, on hCA IX [3], the concentration for half-maximal inhibition (IC50) came out at 140 nM, the Ki was 80 nM, the “Selectivity index I/IX” value is 1.75 and the “Selectivity index II/IX” value turned out to be 13.20. In addition, in the data set with Bcl-2 [4], the Bcl2 worked out at 4.605 ± 0.28 nm/mL and the “Bcl-2 level in comparison” value is “downregulated”. In data set [5], the IC50 came out at 4.08 ± 0.08 µM. In the data set on Bax [6], the Bax amounted to 208.4 ± 4.07 pg/mL and the “Bax level relative to the control” value is “nearly six-fold”. At hCA II [7], this molecule gave an IC50 of 1880 nM and a Ki of 1040 nM. In addition, on hCA I [8], the IC50 was 250 nM and the affinity corresponds to a Ki of 140 nM. In [9], the IC50 was determined as 26.1 ± 0.56 µM. In the data set with Bax [10], the Bax turned out to be 337.2 ± 7.55 pg/mL and the “Bax level relative to the control” value was “nearly six-fold”.

With `CN[C@@H]1C[C@H]2O[C@@](C)([C@@H]1OC)n1c3ccccc3c3c4c(c5c6ccccc6n2c5c31)C(=O)NC4` [Staurosporine, staurosporine, reference compound], the Bcl2 with Bcl-2 [2] was determined as 2.829 ± 0.07 nm/mL; in the data set with Bcl-2 [4] it was 3.78 ± 0.14 nm/mL. The half-maximal inhibitory concentration (IC50) in data set [5] amounted to 6.92 ± 0.18 µM. Moreover, the Bax with Bax [6] is recorded as 310.5 ± 9.7 pg/mL; in the data set on Bax [10], 381.8 ± 11.4 pg/mL.

Regarding `CCOC(=O)c1cnc2cc(Cl)c(F)cc2c1Nc1cccc(S(N)(=O)=O)c1` [Compound I], the Ki is 83 to 3590 nM at hCA II [11]; 0.966 to 9.09 µM and 0.96 to 9.09 µM on hCA I [12].

Consider `NS(=O)(=O)c1cc(Nc2ccnc3ccc(Cl)cc23)ccc1Cl` [Compound II], for which the inhibition constant Ki at hCA XII [13] is 9 nM; on hCA IX [14] it was 18.6 nM and 19 nM.

In turn, `Cc1cccc2cc(/C=N/c3c(N)n(C)c(=S)[nH]c3=O)c(=O)[nH]c12` [Compound 10g, (E)-3-(((6-Amino-1-methyl-4-oxo-2-thioxo-1,2,3,4-tetrahydropyrimidin-5-yl)imino)methyl)-8-methylquinolin-2(1H)-one] had a melting point of 265 to 267 °C. Moreover, at hCA XII [1], the IC50 was found to be 330 nM; the affinity, expressed as Ki, was 180 nM; the “Selectivity index I/XII” value stood at 6.47; the “Selectivity index II/XII” value is 10.05. In addition, on hCA IX [3], half-maximal inhibition (IC50) was put at 1080 nM, the Ki worked out at 600 nM, the “Selectivity index I/IX” value worked out at 1.99 and the “Selectivity index II/IX” value is 3.10. On hCA II [7], this molecule displayed an IC50 of 3360 nM and a Ki of 1860 nM. At hCA I [8], inhibition was half-maximal at 2160 nM (IC50) and the inhibitory constant (Ki) is 1200 nM.

Values taken from publication PMC9146896, “Uracil as a Zn-Binding Bioisostere of the Allergic Benzenesulfonamide in the Design of Quinoline–Uracil Hybrids as Anticancer Carbonic Anhydrase Inhibitors” (Pharmaceuticals, 2022).
